Columns and labels:
Assay in all cases: relative viability (nuclei count vs DMSO), 5 days (fraction); higher = more cells survive
[1] = tested on: NCI-H2342
Procedure, shortened: (§1)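 One day after seeding in 1536-well plates, lung cancer cell lines were dosed by pin tool. Dosing was either single-drug or a fixed anchor-drug dose plus five library-drug doses (not always all listed) in √10 steps. After 5 days, nuclei were stained in one fix-and-stain step and counted on 4× images, and relative viability is the nuclei count of treated wells over that of vehicle wells, given as the median of duplicate plates.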

[2] = tested on: HOP-62
Procedure, shortened: as §1

[3] = tested on: NCI-H23
Procedure, shortened: as §1

[4] = tested on: NCI-H460
Procedure, shortened: as §1

[5] = tested on: 201T
Procedure, shortened: as §1

[6] = tested on: COR-L23
Procedure, shortened: as §1

[7] = tested on: LC-2-ad
Procedure, shortened: as §1

[8] = tested on: NCI-H2087
Procedure, shortened: as §1

[9] = tested on: NCI-H322M
Procedure, shortened: as §1

[10] = tested on: NCI-H1944
Procedure, shortened: as §1

[11] = tested on: NCI-H2009
Procedure, shortened: as §1

[12] = tested on: PC-3 [JPC-3]
Procedure, shortened: as §1

[13] = tested on: ChaGo-K-1
Procedure, shortened: as §1

[14] = tested on: NCI-H727
Procedure, shortened: as §1

[15] = tested on: NCI-H1651
Procedure, shortened: as §1

[16] = tested on: NCI-H2126
Procedure, shortened: as §1

[17] = tested on: NCI-H596
Procedure, shortened: as §1

[18] = tested on: NCI-H1355
Procedure, shortened: as §1

[19] = tested on: NCI-H1666
Procedure, shortened: as §1

[20] = tested on: ABC-1
Procedure, shortened: as §1

[21] = tested on: CAL-12T
Procedure, shortened: as §1

[22] = tested on: SW 1573
Procedure, shortened: as §1

[23] = tested on: NCI-H661
Procedure, shortened: as §1

Structure (SMILES): C=C1C(=O)O[C@@H](CCCCCCCC)[C@@H]1C(=O)O [C-75] + Cc1nc(Nc2ncc(C(=O)Nc3c(C)cccc3Cl)s2)cc(N2CCN(CCO)CC2)n1 [Dasatinib] (partner 0.075 µM)
- relative viability ([1]; first compound 0.08 µM): 0.3
- relative viability ([1]; first compound 0.253 µM): 0.314
- relative viability ([1]; first compound 0.8 µM): 0.301
- relative viability ([1]; first compound 2.53 µM): 0.327
- relative viability ([1]; first compound 8 µM): 0.316
- relative viability ([2]; first compound 0.08 µM): 0.642
- relative viability ([2]; first compound 0.253 µM): 0.499
- relative viability ([2]; first compound 0.8 µM): 0.6
- relative viability ([2]; first compound 2.53 µM): 0.603
- relative viability ([2]; first compound 8 µM): 0.666
- relative viability ([3]; first compound 0.08 µM): 0.81
- relative viability ([3]; first compound 0.253 µM): 0.756
- relative viability ([3]; first compound 0.8 µM): 0.718
- relative viability ([3]; first compound 2.53 µM): 0.443
- relative viability ([3]; first compound 8 µM): 0.586
- relative viability ([4]; first compound 0.08 µM): 0.592
- relative viability ([4]; first compound 0.253 µM): 0.364
- relative viability ([4]; first compound 0.8 µM): 0.415
- relative viability ([4]; first compound 2.53 µM): 0.258
- relative viability ([4]; first compound 8 µM): 0.383
- relative viability ([5]; first compound 0.08 µM): 0.612
- relative viability ([5]; first compound 0.253 µM): 0.707
- relative viability ([5]; first compound 0.8 µM): 0.568
- relative viability ([5]; first compound 2.53 µM): 0.511
- relative viability ([5]; first compound 8 µM): 0.56
- relative viability ([6]; first compound 0.08 µM): 0.518
- relative viability ([6]; first compound 0.253 µM): 0.532
- relative viability ([6]; first compound 0.8 µM): 0.489
- relative viability ([6]; first compound 2.53 µM): 0.328
- relative viability ([6]; first compound 8 µM): 0.48
- relative viability ([7]; first compound 0.08 µM): 0.491
- relative viability ([7]; first compound 0.253 µM): 0.521
- relative viability ([7]; first compound 0.8 µM): 0.468
- relative viability ([7]; first compound 2.53 µM): 0.455
- relative viability ([7]; first compound 8 µM): 0.4
- relative viability ([8]; first compound 0.08 µM): 0.88
- relative viability ([8]; first compound 0.253 µM): 1.06
- relative viability ([8]; first compound 0.8 µM): 0.66
- relative viability ([8]; first compound 2.53 µM): 0.829
- relative viability ([8]; first compound 8 µM): 0.865
- relative viability ([9]; first compound 0.08 µM): 0.241
- relative viability ([9]; first compound 0.253 µM): 0.244
- relative viability ([9]; first compound 0.8 µM): 0.272
- relative viability ([9]; first compound 2.53 µM): 0.198
- relative viability ([9]; first compound 8 µM): 0.313
- relative viability ([10]; first compound 0.08 µM): 0.234
- relative viability ([10]; first compound 0.253 µM): 0.169
- relative viability ([10]; first compound 0.8 µM): 0.193
- relative viability ([10]; first compound 8 µM): 0.225
- relative viability ([11]; first compound 0.08 µM): 0.303
- relative viability ([11]; first compound 0.253 µM): 0.219
- relative viability ([11]; first compound 0.8 µM): 0.281
- relative viability ([11]; first compound 2.53 µM): 0.228
- relative viability ([11]; first compound 8 µM): 0.203
- relative viability ([12]; first compound 0.08 µM): 1.01
- relative viability ([12]; first compound 0.253 µM): 0.994
- relative viability ([12]; first compound 0.8 µM): 1.01
- relative viability ([12]; first compound 2.53 µM): 0.937
- relative viability ([12]; first compound 8 µM): 1
- relative viability ([13]; first compound 0.08 µM): 0.675
- relative viability ([13]; first compound 0.253 µM): 0.463
- relative viability ([13]; first compound 0.8 µM): 0.567
- relative viability ([13]; first compound 2.53 µM): 0.393
- relative viability ([13]; first compound 8 µM): 0.593
- relative viability ([14]; first compound 0.08 µM): 0.406
- relative viability ([14]; first compound 0.253 µM): 0.494
- relative viability ([14]; first compound 0.8 µM): 0.417
- relative viability ([14]; first compound 8 µM): 0.305
- relative viability ([15]; first compound 0.08 µM): 0.484
- relative viability ([15]; first compound 0.253 µM): 0.339
- relative viability ([15]; first compound 0.8 µM): 0.364
- relative viability ([15]; first compound 2.53 µM): 0.362
- relative viability ([15]; first compound 8 µM): 0.413
- relative viability ([16]; first compound 0.08 µM): 0.665
- relative viability ([16]; first compound 0.253 µM): 0.657
- relative viability ([16]; first compound 0.8 µM): 0.576
- relative viability ([16]; first compound 2.53 µM): 0.448
- relative viability ([16]; first compound 8 µM): 0.586
- relative viability ([17]; first compound 0.08 µM): 0.764
- relative viability ([17]; first compound 0.253 µM): 0.669
- relative viability ([17]; first compound 0.8 µM): 0.6
- relative viability ([17]; first compound 2.53 µM): 0.446
- relative viability ([17]; first compound 8 µM): 0.616
- relative viability ([18]; first compound 0.08 µM): 0.71
- relative viability ([18]; first compound 0.253 µM): 0.613
- relative viability ([18]; first compound 0.8 µM): 0.702
- relative viability ([18]; first compound 2.53 µM): 0.649
- relative viability ([18]; first compound 8 µM): 0.775
- relative viability ([19]; first compound 0.08 µM): 0.836
- relative viability ([19]; first compound 0.253 µM): 0.779
- relative viability ([19]; first compound 0.8 µM): 0.74
- relative viability ([19]; first compound 2.53 µM): 0.719
- relative viability ([19]; first compound 8 µM): 0.711
- relative viability ([20]; first compound 0.08 µM): 0.729
- relative viability ([20]; first compound 0.253 µM): 0.613
- relative viability ([20]; first compound 0.8 µM): 0.566
- relative viability ([20]; first compound 2.53 µM): 0.585
- relative viability ([20]; first compound 8 µM): 0.388
- relative viability ([21]; first compound 0.08 µM): 0.391
- relative viability ([21]; first compound 0.253 µM): 0.393
- relative viability ([21]; first compound 0.8 µM): 0.432
- relative viability ([21]; first compound 2.53 µM): 0.317
- relative viability ([21]; first compound 8 µM): 0.303
- relative viability ([22]; first compound 0.08 µM): 0.632
- relative viability ([22]; first compound 0.253 µM): 0.476
- relative viability ([22]; first compound 0.8 µM): 0.291
- relative viability ([22]; first compound 2.53 µM): 0.46
- relative viability ([22]; first compound 8 µM): 0.295
- relative viability ([23]; first compound 0.08 µM): 0.839
- relative viability ([23]; first compound 0.253 µM): 0.795
- relative viability ([23]; first compound 0.8 µM): 0.857
- relative viability ([23]; first compound 2.53 µM): 0.856
- relative viability ([23]; first compound 8 µM): 0.746
